Experiment [1] addresses 11β-HSD1 (Homo sapiens (Human), UniProt P28845). The experiment in a line: 11β-hydroxysteroid dehydrogenase (HSD) 1 Assay (Assay 2), HTRF. Format: biochemical. The note with it: for IC50: human liver microsomes, cortisol generated from cortisone, HTRF, read-out: 11βHSD1 IC50. Here is the method: The compounds of this invention or the physiological acceptable salts thereof were tested for their inhibitory effect on the enzyme 11β-hydroxysteroid dehydrogenase (HSD) 1.
B. 11β-hydroxysteroid dehydrogenase (HSD) 1 Assay (Assay 2)
Compounds were incubated for 1 hour at 37° C. in Tris buffer (20 mM tris, 5 mM EDTA, pH 6.0) containing NADPH (200 μM) and cortisone (80 nM). Cortisol generated in the reaction was then detected by a competitive immunoassay involving two HTRF conjugates: cortisol linked to XL665 and anticortisol antibody labeled with Europium cryptate. The incubation period for detection reaction was 2 hours. The amount of cortisol is determined by reading the time-resolved fluorescence of the wells (Ex 320/75 nm; Em 615/8.5 nm and 665/7.5 nm). The ratio of the two emission signals was then calculated (Em665*10000/Em615). […] Each assay also comprised a calibration curve with cortisol to transform the fluorescent data into cortisol concentrations.
Percent inhibition (% CTL) of each compound is determined relative to the carbenoxolone signal and IC50 curves were generated.
For orientation: TR-FRET usually uses a lanthanide donor and a delayed reading to cut background.

The target in experiment [2] is human mGlu5a receptor (Homo sapiens (Human), UniProt P41594). The experiment in a line: mGlu5 NAM FLIPR Assay (Assay 1). Particulars: for IC50: HEK293 cells stably expressing human mGlu5a, antagonism of EC90 glutamate, [Ca]i. Format: cell-based. Here is the method:
A. mGlu5 NAM FLIPR Assay (Assay 1)
Activation of the mGluR5 receptor expressed in cell lines results in an increase in intracellular calcium concentration. Using calcium sensitive fluorescent dyes and a suited fluorescence plate reader this functional response is detectable and quantifiable. This technique could be used to characterize pharmacological modifications of the mGluR5 receptor.
[Ca]i measurements were performed in HEK293 cells stably expressing the full-length human mGlu5a receptor under the control of a tet-regulated promoter. Cells were cultivated in Dulbecco's modified eagle's medium (DMEM) with 10% fetal calf serum, 100 μg/ml HygromycinB, 500 μg/ml G418 and 2 μg/ml Tetracycline in a 37°, 95% humidity and 5% CO2 incubator. Confluent cell cultures were split on a bi-weekly schedule.
72 hours prior to the assay run mGluR5a expression was induced by replacing the culture medium by DMEM with 10% fetal calf serum without antibiotics. 24 hours prior to the assay run, cell medium was replaced after two wash steps by DMEM, 10% fetal calf serum without glutamine and phenol red. On the assay day, cells were detached from the culture flask by versene, washed, resuspended in a modified Ringer solution with 5 mM Glucose and 10 mM HEPES pH7.4, and plated on Poly-D-Lysine coated 384-well plates with a density of 10.000 cells/60 μl per well. After a seeding time of 1 hour in the incubator the cells were dye-loaded by adding 20 μl of a 4-fold concentrated dye solution from the Calcium 4 kit (Molecular Devices Inc., R8141) according to the manufacturer's manual and incubated for an additional 100 minutes. Compounds were prepared by a 11 point serial dilution in DMSO and a final dilution step into assay puffer (modified Ringer) to ensure a final DMSO concentration of 1% in the assay.
Measurements were done in a two-step procedure. A first measurement was performed directly after the addition of compounds to the cell plates to quantify and correct for compound related non specific effects (e.g. auto fluorescence). 5 minutes later, the antagonistic activities of the compounds were measured by addition of a EC90 concentration of the agonist glutamate (the EC90 concentration was controlled by glutamate dose-response curves). All measurements were done with a fluorimetric imaging plate reader (FLIPR, Molecular Devices Inc.).
IC50 values and Hill slopes were derived from 11-point four parametric non-linear curve fittings with the AssayExplorer software using peak heights of fluorescence signals.

Chain of human mGlu5a receptor (P41594 other isoform, or with tags, fused parts or gaps): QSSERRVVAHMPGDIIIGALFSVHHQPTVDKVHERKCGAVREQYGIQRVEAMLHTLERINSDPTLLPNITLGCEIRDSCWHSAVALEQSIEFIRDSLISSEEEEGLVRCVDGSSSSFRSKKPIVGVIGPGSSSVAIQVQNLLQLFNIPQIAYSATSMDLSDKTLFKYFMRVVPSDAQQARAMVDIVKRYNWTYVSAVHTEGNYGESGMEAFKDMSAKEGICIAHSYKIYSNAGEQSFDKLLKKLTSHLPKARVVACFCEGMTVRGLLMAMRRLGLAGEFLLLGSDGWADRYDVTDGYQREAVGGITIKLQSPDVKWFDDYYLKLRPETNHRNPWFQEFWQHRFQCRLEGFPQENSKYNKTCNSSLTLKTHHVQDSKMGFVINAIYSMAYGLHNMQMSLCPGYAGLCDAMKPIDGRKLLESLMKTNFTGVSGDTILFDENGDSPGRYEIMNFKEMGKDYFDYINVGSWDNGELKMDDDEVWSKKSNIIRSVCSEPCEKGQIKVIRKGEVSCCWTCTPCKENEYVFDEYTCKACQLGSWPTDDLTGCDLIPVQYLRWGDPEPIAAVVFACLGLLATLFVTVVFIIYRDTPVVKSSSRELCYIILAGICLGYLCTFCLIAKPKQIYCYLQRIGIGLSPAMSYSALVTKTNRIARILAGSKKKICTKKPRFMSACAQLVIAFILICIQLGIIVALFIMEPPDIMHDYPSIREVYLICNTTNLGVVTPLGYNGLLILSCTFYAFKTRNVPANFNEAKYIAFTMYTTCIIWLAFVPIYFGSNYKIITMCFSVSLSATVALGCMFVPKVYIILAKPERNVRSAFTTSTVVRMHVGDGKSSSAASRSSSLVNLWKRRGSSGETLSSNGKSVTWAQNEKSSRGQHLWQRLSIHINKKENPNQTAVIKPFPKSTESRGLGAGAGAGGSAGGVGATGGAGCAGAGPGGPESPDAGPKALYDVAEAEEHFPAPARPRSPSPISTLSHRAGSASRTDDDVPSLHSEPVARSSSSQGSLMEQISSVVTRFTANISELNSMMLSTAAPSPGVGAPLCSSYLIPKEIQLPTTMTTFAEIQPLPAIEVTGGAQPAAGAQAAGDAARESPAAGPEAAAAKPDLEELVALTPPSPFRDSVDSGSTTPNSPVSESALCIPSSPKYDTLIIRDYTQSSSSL
Chain of 11β-HSD1 (P28845 whole entry): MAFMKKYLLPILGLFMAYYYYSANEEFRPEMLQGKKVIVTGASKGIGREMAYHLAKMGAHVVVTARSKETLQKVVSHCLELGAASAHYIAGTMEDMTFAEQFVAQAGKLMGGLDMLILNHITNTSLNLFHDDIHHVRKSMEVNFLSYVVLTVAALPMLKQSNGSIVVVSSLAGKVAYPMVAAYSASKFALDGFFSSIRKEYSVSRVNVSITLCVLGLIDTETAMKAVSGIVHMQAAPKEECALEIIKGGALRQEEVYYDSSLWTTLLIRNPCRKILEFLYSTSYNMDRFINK

Consider `O=C(c1cc2ncc(Br)cn2n1)N1CCCC1` [A, reference compound], for which the “activity on 11βHSD1 (assay 2), in words” value in experiment [1] is given as “inactivity”. Moreover, in experiment [2], the “activity in assay 1 (mGlu5), in words” value is “inactivity” and the IC50 is above 10000 nM.

Take `O=C(c1cc2ncc(Br)cn2n1)N1CCCCCC1` [B, reference compound]: in experiment [1], the “activity on 11βHSD1 (assay 2), in words” value is “inactivity” and the half-inhibitory concentration (IC50) was above 10000 nM. In addition, in experiment [2], the “activity in assay 1 (mGlu5), in words” value is given as “inactivity” and the IC50 is above 10000 nM.

For `COc1ccc(-c2cc(C(F)(F)F)n3nc(C(=O)N4CCc5ncsc5CC4)cc3n2)cc1` [C, reference compound], the half-inhibitory concentration (IC50) in experiment [1] and in experiment [2] was above 10000 nM each time.

Regarding `Cc1cc(C(F)(F)F)n2nc(C(=O)N3CCc4ncsc4CC3)cc2n1` [D, reference compound], the concentration for half-maximal inhibition (IC50) in experiment [1] and in experiment [2] was above 10000 nM in each case.

`COc1cccc(-c2cc(C(F)(F)F)n3nc(C(=O)N4CCc5ncsc5CC4)cc3n2)c1` [E, reference compound]: the IC50 in experiment [1] and in experiment [2] was above 10000 nM each time.

As for `O=C(c1cc2ncc(Br)cn2n1)N1CCc2ccc(Cl)nc2CC1` [Example 1, (6-Bromo-pyrazolo[1,5-a]pyrimidin-2-yl)-(2-chloro-5,6,8,9-tetrahydro-pyrido[2,3-d]azepin-7-yl)-methanone], the 50% inhibitory concentration (IC50) is above 10000 nM in experiment [1] and 146 nM in experiment [2].

In the case of `COc1ccc2c(n1)CCN(C(=O)c1cc3ncc(Br)cn3n1)CC2` [Example 2, (6-Bromo-pyrazolo[1,5-a]pyrimidin-2-yl)-(2-methoxy-5,6,8,9-tetrahydro-pyrido[2,3-d]azepin-7-yl)-methanone], the half-inhibitory concentration (IC50) in experiment [1] was above 10000 nM; in experiment [2], 230 nM.

On to `O=C(c1cc2ncc(Br)cn2n1)N1CCc2ccsc2CC1` [Example 3, (6-Bromo-pyrazolo[1,5-a]pyrimidin-2-yl)-(4,5,7,8-tetrahydro-thieno[2,3-d]azepin-6-yl)-methanone], for which the IC50 is above 10000 nM in experiment [1] and 1380 nM in experiment [2].

For the molecule `CCc1nc2c(s1)CCN(C(=O)c1cc3ncc(Br)cn3n1)CC2` [Example 4, (6-Bromo-pyrazolo[1,5-a]pyrimidin-2-yl)-(2-ethyl-4,5,7,8-tetrahydro-thiazolo[4,5-d]azepin-6-yl)-methanone], the half-maximal inhibitory concentration (IC50) in experiment [1] is above 10000 nM; in experiment [2], 33 nM.

Turning to `O=C(c1cc2ncc(Br)cn2n1)N1CCCCC1` [Example 4-21, reference compound], the concentration for half-maximal inhibition (IC50) in experiment [1] and in experiment [2] was above 10000 nM in each case.

`O=C(c1cc2ncc(Br)cn2n1)N1CCOCC1` [Example 4-22, reference compound]: the IC50 in experiment [1] and in experiment [2] was above 10000 nM throughout.

For the molecule `O=C(c1cc2ncc(Br)cn2n1)N1CCc2ncsc2CC1` [Example 5, (6-Bromo-pyrazolo[1,5-a]pyrimidin-2-yl)-(4,5,7,8-tetrahydro-thiazolo[4,5-d]azepin-6-yl)-methanone], the IC50 in experiment [1] was above 10000 nM; in experiment [2] it was 110 nM.

As to `O=C(c1cc2ncc(Br)cn2n1)N1CCc2cc(Cl)nnc2CC1` [Example 7, (6-Bromo-pyrazolo[1,5-a]pyrimidin-2-yl)-(3-chloro-5,6,8,9-tetrahydro-1,2,7-triaza-benzocyclohepten-7-yl)-methanone], the IC50 is above 10000 nM in experiment [1] and 340 nM in experiment [2].

As to `COCc1nc2c(s1)CCN(C(=O)c1cc3ncc(Br)cn3n1)CC2` [Example 8, (6-Bromo-pyrazolo[1,5-a]pyrimidin-2-yl)-(2-methoxymethyl-4,5,7,8-tetrahydro-thiazolo[4,5-d]azepin-6-yl)-methanone], the IC50 was above 10000 nM in experiment [1] and 1540 nM in experiment [2].

Regarding `Cc1cnc2cc(C(=O)N3CCc4ncsc4CC3)nn2c1` [Example 9], the IC50 in experiment [1] is above 10000 nM; in experiment [2], 1420 nM.

For the molecule `O=C(c1cc2ncc(Cl)cn2n1)N1CCc2ncsc2CC1` [Example 10, (6-Chloro-pyrazolo[1,5-a]pyrimidin-2-yl)-(4,5,7,8-tetrahydro-thiazolo[4,5-d]azepin-6-yl)-methanone], the IC50 in experiment [1] is above 10000 nM; in experiment [2], 59 nM.

On to `O=C(c1cc2ncc(Br)cn2n1)N1CCc2[nH]c(=O)sc2CC1` [Example 11, 6-(6-Bromo-pyrazolo[1,5-a]pyrimidine-2-carbonyl)-3,4,5,6,7,8-hexahydro-thiazolo[4,5-d]azepin-2-one], for which the IC50 was above 10000 nM in experiment [1] and 66 nM in experiment [2].

For the molecule `CC(C)c1nc2c(s1)CCN(C(=O)c1cc3ncc(Br)cn3n1)CC2` [Example 12, (6-Bromo-pyrazolo[1,5-a]pyrimidin-2-yl)-(2-isopropyl-4,5,7,8-tetrahydro-thiazolo[4,5-d]azepin-6-yl)-methanone], the concentration for half-maximal inhibition (IC50) in experiment [1] is above 10000 nM; in experiment [2], 148 nM.

As to `Cc1nc2c(s1)CCN(C(=O)c1cc3ncc(Cl)cn3n1)CC2` [Example 13, (6-Chloro-pyrazolo[1,5-a]pyrimidin-2-yl)-(2-methyl-4,5,7,8-tetrahydro-thiazolo[4,5-d]azepin-6-yl)-methanone], the IC50 is above 10000 nM in experiment [1] and 63 nM in experiment [2].

For `O=C(c1cc2ncc(Br)cn2n1)N1CCc2cccnc2CC1` [Example 14, (6-Bromo-pyrazolo[1,5-a]pyrimidin-2-yl)-(5,6,8,9-tetrahydro-pyrido[2,3-d]azepin-7-yl)-methanone], the IC50 was above 10000 nM in experiment [1] and 603 nM in experiment [2].

On to `Cn1cnc2c1CCN(C(=O)c1cc3ncc(Br)cn3n1)CC2` [Example 15, (6-Bromo-pyrazolo[1,5-a]pyrimidin-2-yl)-(1-methyl-4,5,7,8-tetrahydro-1H-imidazo[4,5-d]azepin-6-yl)-methanone], for which the concentration for half-maximal inhibition (IC50) is above 10000 nM in experiment [1] and 692 nM in experiment [2].

For the molecule `Cn1c2c(sc1=O)CCN(C(=O)c1cc3ncc(Br)cn3n1)CC2` [Example 16, 6-(6-Bromo-pyrazolo[1,5-a]pyrimidine-2-carbonyl)-3-methyl-3,4,5,6,7,8-hexahydro-thiazolo[4,5-d]azepin-2-one], the figures for the half-maximal inhibitory concentration (IC50) in experiment [1] and in experiment [2] were above 10000 nM and 1280 nM, respectively.

As for `Cn1c2c(c3ccccc31)CCN(C(=O)c1cc3ncc(Br)cn3n1)CC2` [Example 17, (6-Bromo-pyrazolo[1,5-a]pyrimidin-2-yl)-(6-methyl-1,4,5,6-tetrahydro-2H-azepino[4,5-b]indol-3-yl)-methanone], the concentration for half-maximal inhibition (IC50) in experiment [1] was above 10000 nM; in experiment [2], 550 nM.

The molecule `CC(C)c1nc2c(s1)CCN(C(=O)c1cc3ncc(Cl)cn3n1)CC2` [Example 18, (6-Chloro-pyrazolo[1,5-a]pyrimidin-2-yl)-(2-isopropyl-4,5,7,8-tetrahydro-thiazolo[4,5-d]azepin-6-yl)-methanone] had a concentration for half-maximal inhibition (IC50) in experiment [2] of 235 nM.

For `O=C(c1cc2ncc(Cl)cn2n1)N1CCc2[nH]c(=O)sc2CC1` [Example 19, 6-(6-Chloro-pyrazolo[1,5-a]pyrimidine-2-carbonyl)-3,4,5,6,7,8-hexahydro-thiazolo[4,5-d]azepin-2-one], inhibition in experiment [2] was half-maximal at 128 nM (IC50).

In the case of “(6-Bromo-pyrazolo[1,5-a]pyrimidin-2-yl)-(2-methyl-4,5,7,8-tetrahydro-3H-1lambda*4*-thiazolo[4,5-d]azepin-6-yl)-methanone [Example 6]”, the IC50 in experiment [1] was above 10000 nM; in experiment [2] it was 43 nM.

The term IC50 denotes the concentration that gives 50% inhibition.
